Patent US20090221520A1, “Polyene Antibiotics, Compositions Containing Said Antibiotics, Method and Micro-Organisms Used to Obtain Same and Applications Thereof” (priority 2005, published 2009)

Assays:
[1] = tested on: Human erythrocytes; experiment: Trials of haemolytic activity (toxicity) on human blood; type: cell-based; conditions: for haemolytic activity as a total percentage of haemolysis: 2.5% human blood, 37° C., 30 minutes, Example 1
Protocol: The trials were conducted according to the method described by Gómez-Gómez et al. (Gómez-Gómez, J. M. et al., 1996, Mol. Microbiol. 19: 909-910). The samples of polyenes were first dried and then dissolved in DMSO at an estimated concentration of 10 to 30 mg/mL. Increasing quantities of the different polyenes were taken to a final volume of 100 μL of DMSO and mixed by means of gentle stirring with 500 μL of PBS buffer (Gómez-Gómez, J. M. et al., 1996, cited earlier), containing 2.5% of human blood, or eventually that of horse. After incubation at 37° C. for 30 minutes without stirring, the cells were sedimented by centrifugation and the degree of haemolysis was assessed by means of measuring the absorption at 545 nm. The values corresponding to the total haemolysis were estimated with a suspension of 2.5% of horse blood in distilled water. The human blood (fundamentally erythrocytes) was obtained from local blood banks (Hospital Ramón y Cajal, Madrid); the horse blood came from Oxoid (defibrinated blood). The amphotericin B and the nystatin were obtained from Sigma (catalogue numbers A-4888 and N-3503, respectively) and the pimaricin came from Calbiochem (527962). All these polyenes were tested directly from commercial samples, without any additional purification
In the above experiments it is clear that the modification of the novel amidated polyenes, produced by the genetic recombinants of Streptomyces diastaticus var. 108 gave rise to compounds with high antifungal activity. […] Human erythrocytes were used as cell models for this study (Cybulska B, et al., 2000, Acta Biochim. Pol. 47: 121-131; Gómez-Gómez, J. M. et al., 1996, Mol. Microbiol. 19: 909-910). The haemolytic activity of the novel compounds was assessed (see the section relating to Experimental Methods) against rimocidin and CE-108; amphotericin B and nystatin A were also included. […] It is worth while highlighting the differences in toxicity observed between CE-108 (IIb) and CE-108B (I-1b) with rimocidin (IIa) and rimocidin B (I-1a); while 50% of haemolysis is achieved with 40 to 60 nanomoles for the last two polyenes, a concentration of CE-108 and is amide 6 or 7 times greater is required in order to achieve the same degree of haemolysis.
The trials were conducted on human blood enriched in eritrocytes, as described previously in Example 1.
In order to measure whether other pharmacological properties of the novel tetraenes were different, haemolytic activity trials were conducted and compared with the parent compounds. Human eritrocytes, were used for these tests. It can be pointed out that although the antifungal activities of rimocidin (IIa) and rimocidin C (IIIa) were similar, their toxicities (measured in terms of haemolytic activity) were 2.5-5 times lower for rimocidin C (IIIa) than for rimocidin (IIa).

[2] = tested on: Penicillium chrysogenum; experiment: Antifungal activity of pimaricin and AB-400 towards P. chrysogenum; type: cell-based; conditions: for antifungal activity at the tested concentration: P. chrysogenum, a total of 200 ng added in each test
Protocol: RGU5.3. […] RGU5.3 grown in medium with acetate (FIG. 3A) or glucose (FIG. 3B) as source of carbon, respectively. FIG. 3C illustrates the antifungal activity of pimaricin (IVa) and AB-400 (IVb) towards P. chrysogenum; the samples of polyenes applied were (1): commercial pimaricin (Calbiochem […]), (2): total extract of the fermentation culture of S. sp. RGU5.3 grown in glucose medium; (3) purified AB-400 coming from S. sp. RGU5.3 and (4) pimaricin coming from S. sp. RGU5.3; a total of 200 ng. were added in each test.
(§1) The antifungal activity of the novel amidated tetraenes [rimocidin B (I-1a) and CE-108B (I-1b)] was tested against various fungi: Penicillium chrysogenum, Candida albicans, Aspergillus niger, Candida krusei and Cryptococcus neoformans. Increasing quantities of the different tetraenes, dissolved in methanol, were applied to paper discs (9 mm in diameter); following the application, the discs were dried and placed on bioassay plates on which the corresponding test fungi had previously been spread. The activity of these amidated tetraenes was compared with that of the molecules from which they derived [[…]], showing that the biological activity of the amidated polyenes was substantially greater than that of the corresponding tetraenes that they derived from (FIG. 2) in all tested fungi. In all cases, the substitution of the free carboxyl- group for the amide- group increased the antifungal activity by approximately fourfold.
The same results were obtained comparing pimaricin (IVa) and its amidated derivative AB-400 (IVb). Both compounds were purified starting from the isolated strain Streptomyces sp. RGU5.3, as indicated in the section on Experimental Methods. […] In this way, using a fermentation culture containing glucose as the source of carbon and not sodium acetate, the pimaricin/AB-400 balance is 70/30; when the same medium is supplemented with sodium acetate, the production profile is reversed, being AB-400 (IVb) the main polyene compound produced (FIG. 3). […]

[3] = Solubility
[4] = tested on: Penicillium chrysogenum, Candida albicans, Aspergillus niger, Candida krusei and Cryptococcus neoformans; experiment: Antifungal activity trials, paper discs on bioassay plates; type: cell-based; conditions: for antifungal activity (in words): paper disc trials, Example 1; for increase of antifungal activity by substitution of the free carboxyl- group for the amide- group: versus parent tetraene, all tested fungi, paper discs 9 mm; for antifungal activities compared with the end products rimocidin (IIa) and CE-108 (IIb): measured as in example 1, Example 2
Protocol: P. chysogenum, C. krusei, A. niger, C. albicans and C. neoformans, fungi used for testing antifungal activity, were grown in MPDA medium (composition: 2% malt extract, 2% glucose, 0.1% Bactopeptone).
as §1
The antifungal activity of the novel non-carboxylated tetraenes rimocidin C (IIIa) and CE-108C (IIIb) was measured against Penicillium chrysogenum, Candida albicans, Aspergillus niger, Candida krusei and Cryptococcus neoformans, in comparison with that of the native tetraenes rimocidin (IIa) and CE-108 (IIb).

CCC[C@@H]1C/C=C/C=C/C=C/C=C/[C@H](O[C@@H]2O[C@H](C)[C@@H](O)[C@H](N)[C@@H]2O)C[C@@H]2O[C@](O)(C[C@@H](O)CCCC(=O)C[C@@H](O)[C@H](CC)C(=O)O1)C[C@H](O)[C@H]2C(=O)O [Rimocidin (IIa), rimocidin]
quantity with which 50% of haemolysis is achieved [1]: 40 to 60 nmol

C[C@@H]1C\C=C/C=C\C=C/C=C[C@H](O[C@@H]2O[C@H](C)[C@@H](O)[C@H](N)[C@@H]2O)C[C@@H]2O[C@](O)(C[C@@H](O)C[C@H]3O[C@@H]3/C=C\C(=O)O1)C[C@H](O)[C@H]2C(N)=O [AB-400 (IVb), AB-400]
haemolytic activity of AB-400 compared with commercial pimaricin [1]: did not show significant differences | antifungal activity at the tested concentration [2]: highly active | difference in antifungal activity between AB-400 and pimaricin ([2]; Penicillium chrysogenum): ~1 order of magnitude | solubility compared with the parent / non-amidated compound [3]: increase in their solubility

CCC1C(=O)O[C@H](C)C/C=C/C=C/C=C/C=C/[C@H](OC2OC(C)C(O)C(N)C2O)C[C@@H]2O[C@](O)(CC(O)CCCC(=O)CC1O)C[C@H](O)[C@H]2C(=O)O (stereo partly drawn) [CE-108 (IIb), CE-108]
concentration required to achieve the same degree (50%) of haemolysis, times greater than for rimocidin and rimocidin B [1]: 6 or 7 times | antifungal activity (in words) [4]: low

rimocidin B [Rimocidin B (I-1a)]
haemolytic activity compared with the corresponding tetraene it derived from [1]: not significantly different | quantity with which 50% of haemolysis is achieved [1]: 40 to 60 nmol | increase of antifungal activity by substitution of the free carboxyl- group for the amide- group [4]: approximately fourfold

14-decarboxy-methyl-CE-108 [CE-108C (IIIb)]
antifungal activities compared with the end products rimocidin (IIa) and CE-108 (IIb) [4]: not significantly different

C[C@@H]1[C@H](O)[C@@H](C)/C=C/C=C/CC/C=C/C=C/C=C/C=C/C(O[C@H]2O[C@H](C)[C@@H](O)[C@H](N)[C@@H]2O)CC2O[C@](O)(CC(O)C(O)CCC(O)CC(O)CC(O)CC(=O)O[C@H]1C)CC(O)C2C(=O)O (stereo partly drawn) [Nystatin A, nystatin A]
haemolytic activity as a total percentage of haemolysis ([1]; 20 nanomoles of polyene): 2.20% | haemolytic activity as a total percentage of haemolysis ([1]; 40 nanomoles of polyene): 49.53% | haemolytic activity as a total percentage of haemolysis ([1]; 60 nanomoles of polyene): 76.80% | haemolytic activity as a total percentage of haemolysis ([1]; 80 nanomoles of polyene): 92.79% | haemolytic activity as a total percentage of haemolysis ([1]; 100 nanomoles of polyene): 100.00%

14-decarboxy-14-methyl-rimocidin [Rimocidin C (IIIa)]
toxicity (measured in terms of haemolytic activity), times lower than for rimocidin (IIa) [1]: 2.5-5 times | antifungal activities compared with the end products rimocidin (IIa) and CE-108 (IIb) [4]: not significantly different

CE-108B [CE-108B (I-1b)]
concentration required to achieve the same degree (50%) of haemolysis, times greater than for rimocidin and rimocidin B [1]: 6 or 7 times | haemolytic activity compared with the corresponding tetraene it derived from [1]: not significantly different | haemolytic activity, times lower than that of rimocidin [1]: 6 or 7 times | antifungal activity (in words) [4]: almost as high as that of rimocidin | increase of antifungal activity by substitution of the free carboxyl- group for the amide- group [4]: approximately fourfold

C[C@@H]1C/C=C/C=C/C=C/C=C/[C@H](O[C@@H]2O[C@H](C)[C@@H](O)[C@H](N)[C@@H]2O)C[C@@H]2O[C@](O)(C[C@@H](O)C[C@H]3O[C@@H]3/C=C/C(=O)O1)C[C@H](O)[C@H]2C(=O)O [pimaricin (IVa), pimaricin]
antifungal activity at the tested concentration [2]: no antifungal activity was observed
